Measured values published in ChEMBL document CHEMBL3632469, “Discovery of dihydroquinazolinone derivatives as potent, selective, and CNS-penetrant M(1) and M(4) muscarinic acetylcholine receptors agonists” (Bioorg Med Chem Lett, 2015).

What was measured:
[1] = biological target: T1, Muscarinic acetylcholine receptor M5 (Homo sapiens) (UniProt P08912); assay: Agonist activity at human muscarinic M5 acetylcholine receptor expressed in CHO cells assessed as calcium mobilization at 30 uM by FLIPR assay; format: functional, cell-based
T1 sequence (whole entry): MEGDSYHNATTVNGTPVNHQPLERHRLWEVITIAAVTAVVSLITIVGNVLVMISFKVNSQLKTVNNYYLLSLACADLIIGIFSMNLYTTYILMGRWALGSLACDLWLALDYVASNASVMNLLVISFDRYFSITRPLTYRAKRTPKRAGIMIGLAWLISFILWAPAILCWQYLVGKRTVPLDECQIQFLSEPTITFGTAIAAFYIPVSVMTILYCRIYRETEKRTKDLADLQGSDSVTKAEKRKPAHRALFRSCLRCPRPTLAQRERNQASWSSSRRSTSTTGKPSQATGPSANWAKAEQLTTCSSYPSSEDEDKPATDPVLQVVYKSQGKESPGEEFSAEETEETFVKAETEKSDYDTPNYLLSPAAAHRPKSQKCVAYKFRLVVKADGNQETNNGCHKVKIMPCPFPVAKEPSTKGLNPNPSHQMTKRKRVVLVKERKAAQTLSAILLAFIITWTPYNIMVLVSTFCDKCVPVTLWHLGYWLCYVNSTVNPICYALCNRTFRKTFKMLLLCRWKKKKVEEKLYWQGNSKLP

Cytochrome P450 2C9 = Cytochrome P450 2C9 (Homo sapiens, UniProt P11712); assay: Inhibition of CYP2C9 (unknown origin); format: ADME
[2] = biological target: Muscarinic acetylcholine receptor M3 (Homo sapiens) (UniProt P20309); assay: Agonist activity at human muscarinic M3 acetylcholine receptor expressed in CHO cells assessed as calcium mobilization at 30 uM by FLIPR assay; format: functional, cell-based
Rattus norvegicus = assay: Antipsychotic-like activity in sc dosed rat assessed as inhibition of METH-induced locomotor hyperactivity; format: functional
[3] = biological target: Adenosine receptor A1 (Homo sapiens) (UniProt P30542); assay: Agonist activity at adenosine a1 receptor (unknown origin) expressed in CHO cells assessed as calcium mobilization at 3 uM; format: functional, cell-based
[4] = biological target: Adenosine receptor A3 (Homo sapiens) (UniProt P0DMS8); assay: Agonist activity at adenosine a3 receptor (unknown origin) expressed in CHO cells assessed as calcium mobilization at 3 uM; format: functional, cell-based
[5] = biological target: D(1A) dopamine receptor (Homo sapiens) (UniProt P21728); assay: Agonist activity at dopamine D1 receptor (unknown origin) expressed in CHO cells assessed as calcium mobilization at 3 uM; format: functional, cell-based
[6] = biological target: D(3) dopamine receptor (Homo sapiens) (UniProt P35462); assay: Agonist activity at dopamine D3L receptor (unknown origin) expressed in CHO cells assessed as calcium mobilization at 3 uM; format: functional, cell-based
[7] = biological target: D(4) dopamine receptor (Homo sapiens) (UniProt P21917); assay: Agonist activity at dopamine D4 receptor (unknown origin) expressed in CHO cells assessed as calcium mobilization at 3 uM; format: functional, cell-based
[8] = biological target: Endothelin-1 receptor (Homo sapiens) (UniProt P25101); assay: Agonist activity at endothelin a receptor (unknown origin) expressed in CHO cells assessed as calcium mobilization at 3 uM; format: functional, cell-based
[9] = biological target: Cysteinyl leukotriene receptor 1 (Homo sapiens) (UniProt Q9Y271); assay: Agonist activity at CysLT1 receptor (unknown origin) expressed in CHO cells assessed as calcium mobilization at 3 uM; format: functional, cell-based
[10] = biological target: 5-hydroxytryptamine receptor 7 (Homo sapiens) (UniProt P34969); assay: Agonist activity at 5-HT7B receptor (unknown origin) expressed in CHO cells assessed as calcium mobilization at 3 uM; format: functional, cell-based
[11] = biological target: Somatostatin receptor type 2 (Homo sapiens) (UniProt P30874); assay: Agonist activity at SSTR2 receptor (unknown origin) expressed in CHO cells assessed as calcium mobilization at 3 uM; format: functional, cell-based
[12] = biological target: Adenosine receptor A1 (Homo sapiens) (UniProt P30542); assay: Antagonist activity at adenosine a1 receptor (unknown origin) expressed in CHO cells assessed as calcium mobilization at 3 uM; format: functional, cell-based
[13] = biological target: Alpha-2C adrenergic receptor (Homo sapiens) (UniProt P18825); assay: Antagonist activity at adrenergic a2C receptor (unknown origin) expressed in CHO cells assessed as calcium mobilization at 3 uM; format: functional, cell-based
[14] = biological target: Beta-1 adrenergic receptor (Homo sapiens) (UniProt P08588); assay: Antagonist activity at adrenergic beta1 receptor (unknown origin) expressed in CHO cells assessed as calcium mobilization at 3 uM; format: functional, cell-based
[15] = biological target: D(1B) dopamine receptor (Homo sapiens) (UniProt P21918); assay: Antagonist activity at dopamine D5 receptor (unknown origin) expressed in CHO cells assessed as calcium mobilization at 3 uM; format: functional, cell-based
[16] = biological target: Histamine H3 receptor (Homo sapiens) (UniProt Q9Y5N1); assay: Antagonist activity at histamine H3 receptor (unknown origin) expressed in CHO cells assessed as calcium mobilization at 3 uM; format: functional, cell-based
[17] = biological target: Cysteinyl leukotriene receptor 1 (Homo sapiens) (UniProt Q9Y271); assay: Antagonist activity at CysLT1 receptor (unknown origin) expressed in CHO cells assessed as calcium mobilization at 3 uM; format: functional, cell-based
[18] = biological target: Neuropeptide Y receptor type 2 (Homo sapiens) (UniProt P49146); assay: Antagonist activity at NPY2 receptor (unknown origin) expressed in CHO cells assessed as calcium mobilization at 3 uM; format: functional, cell-based
[19] = biological target: Kappa-type opioid receptor (Homo sapiens) (UniProt P41145); assay: Antagonist activity at opiate kappa receptor (unknown origin) expressed in CHO cells assessed as calcium mobilization at 3 uM; format: functional, cell-based
[20] = biological target: 5-hydroxytryptamine receptor 1A (Homo sapiens) (UniProt P08908); assay: Antagonist activity at 5-HT1a receptor (unknown origin) expressed in CHO cells assessed as calcium mobilization at 3 uM; format: functional, cell-based
[21] = biological target: 5-hydroxytryptamine receptor 1B (Homo sapiens) (UniProt P28222); assay: Antagonist activity at 5-HT1B receptor (unknown origin) expressed in CHO cells assessed as calcium mobilization at 3 uM; format: functional, cell-based
[22] = biological target: 5-hydroxytryptamine receptor 1E (Homo sapiens) (UniProt P28566); assay: Antagonist activity at 5-HT1E receptor (unknown origin) expressed in CHO cells assessed as calcium mobilization at 3 uM; format: functional, cell-based
[23] = biological target: 5-hydroxytryptamine receptor 2B (Homo sapiens) (UniProt P41595); assay: Antagonist activity at 5-HT2B receptor (unknown origin) expressed in CHO cells assessed as calcium mobilization at 3 uM; format: functional, cell-based
Sequence of 5-hydroxytryptamine receptor 2B (Homo sapiens) (P41595 whole entry): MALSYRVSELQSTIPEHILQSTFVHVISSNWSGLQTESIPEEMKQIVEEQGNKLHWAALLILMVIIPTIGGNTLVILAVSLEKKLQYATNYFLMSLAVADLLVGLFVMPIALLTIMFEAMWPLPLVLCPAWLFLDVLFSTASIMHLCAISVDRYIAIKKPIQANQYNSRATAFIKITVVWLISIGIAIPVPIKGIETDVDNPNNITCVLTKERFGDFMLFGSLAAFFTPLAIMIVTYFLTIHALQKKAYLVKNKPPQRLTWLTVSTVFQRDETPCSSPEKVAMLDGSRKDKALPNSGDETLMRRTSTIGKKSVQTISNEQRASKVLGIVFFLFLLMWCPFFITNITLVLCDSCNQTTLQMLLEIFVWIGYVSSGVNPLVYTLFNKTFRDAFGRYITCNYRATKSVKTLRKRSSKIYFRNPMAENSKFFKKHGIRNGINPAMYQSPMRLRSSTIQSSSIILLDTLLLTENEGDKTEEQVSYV

Sequence of Adenosine receptor A1 (Homo sapiens) (P30542 whole entry): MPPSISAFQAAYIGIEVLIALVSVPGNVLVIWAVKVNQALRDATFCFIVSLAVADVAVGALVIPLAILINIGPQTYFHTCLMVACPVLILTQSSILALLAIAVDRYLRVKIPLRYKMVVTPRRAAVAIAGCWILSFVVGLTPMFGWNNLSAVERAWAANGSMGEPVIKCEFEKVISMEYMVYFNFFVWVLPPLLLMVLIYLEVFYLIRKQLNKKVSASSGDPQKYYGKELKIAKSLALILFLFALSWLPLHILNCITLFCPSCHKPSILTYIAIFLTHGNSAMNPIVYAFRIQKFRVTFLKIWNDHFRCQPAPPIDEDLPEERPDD
Sequence of Cysteinyl leukotriene receptor 1 (Homo sapiens) (Q9Y271 whole entry): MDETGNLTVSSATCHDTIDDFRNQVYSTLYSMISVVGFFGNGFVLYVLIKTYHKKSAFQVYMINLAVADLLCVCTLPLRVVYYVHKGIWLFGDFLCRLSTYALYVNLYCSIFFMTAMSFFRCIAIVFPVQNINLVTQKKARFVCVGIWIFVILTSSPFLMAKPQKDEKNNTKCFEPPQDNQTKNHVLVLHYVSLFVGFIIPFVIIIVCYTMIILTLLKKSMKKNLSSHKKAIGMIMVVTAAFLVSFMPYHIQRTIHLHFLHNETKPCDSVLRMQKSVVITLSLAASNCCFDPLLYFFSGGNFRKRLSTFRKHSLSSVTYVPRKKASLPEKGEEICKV
Sequence of Kappa-type opioid receptor (Homo sapiens) (P41145 whole entry): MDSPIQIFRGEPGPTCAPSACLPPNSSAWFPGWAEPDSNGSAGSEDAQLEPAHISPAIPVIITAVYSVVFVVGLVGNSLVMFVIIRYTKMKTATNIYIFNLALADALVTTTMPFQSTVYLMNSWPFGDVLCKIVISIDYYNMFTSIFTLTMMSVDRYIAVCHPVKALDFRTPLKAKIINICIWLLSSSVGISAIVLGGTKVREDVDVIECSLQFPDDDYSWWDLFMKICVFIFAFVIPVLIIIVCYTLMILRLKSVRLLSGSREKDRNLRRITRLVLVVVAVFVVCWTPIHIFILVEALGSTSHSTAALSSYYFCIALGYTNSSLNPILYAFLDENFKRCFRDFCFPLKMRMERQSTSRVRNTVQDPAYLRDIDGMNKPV
Sequence of Cytochrome P450 2C9 (P11712 whole entry): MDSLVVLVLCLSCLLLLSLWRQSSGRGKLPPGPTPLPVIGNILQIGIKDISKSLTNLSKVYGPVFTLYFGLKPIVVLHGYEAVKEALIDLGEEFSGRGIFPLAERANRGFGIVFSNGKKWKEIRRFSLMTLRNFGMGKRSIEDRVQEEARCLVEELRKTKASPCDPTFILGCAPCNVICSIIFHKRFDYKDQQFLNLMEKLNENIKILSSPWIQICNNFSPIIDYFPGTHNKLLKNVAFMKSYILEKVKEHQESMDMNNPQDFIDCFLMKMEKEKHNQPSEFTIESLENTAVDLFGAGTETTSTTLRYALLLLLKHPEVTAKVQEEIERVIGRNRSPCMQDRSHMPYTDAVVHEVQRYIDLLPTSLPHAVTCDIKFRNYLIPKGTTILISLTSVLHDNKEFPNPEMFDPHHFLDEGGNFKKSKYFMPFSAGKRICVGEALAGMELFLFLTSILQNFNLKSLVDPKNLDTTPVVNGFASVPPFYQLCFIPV
Sequence of Endothelin-1 receptor (Homo sapiens) (P25101 whole entry): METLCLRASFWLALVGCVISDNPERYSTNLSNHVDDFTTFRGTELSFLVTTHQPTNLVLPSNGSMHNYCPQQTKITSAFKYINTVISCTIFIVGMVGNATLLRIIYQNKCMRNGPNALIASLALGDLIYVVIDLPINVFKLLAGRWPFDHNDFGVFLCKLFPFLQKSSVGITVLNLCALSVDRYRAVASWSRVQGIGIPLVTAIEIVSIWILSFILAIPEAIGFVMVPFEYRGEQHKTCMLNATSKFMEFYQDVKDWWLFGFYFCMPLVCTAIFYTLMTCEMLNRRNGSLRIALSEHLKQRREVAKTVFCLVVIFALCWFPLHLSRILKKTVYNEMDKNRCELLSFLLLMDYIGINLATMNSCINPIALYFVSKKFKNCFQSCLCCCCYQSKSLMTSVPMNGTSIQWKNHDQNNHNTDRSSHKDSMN
Sequence of Beta-1 adrenergic receptor (Homo sapiens) (P08588 whole entry, looked up): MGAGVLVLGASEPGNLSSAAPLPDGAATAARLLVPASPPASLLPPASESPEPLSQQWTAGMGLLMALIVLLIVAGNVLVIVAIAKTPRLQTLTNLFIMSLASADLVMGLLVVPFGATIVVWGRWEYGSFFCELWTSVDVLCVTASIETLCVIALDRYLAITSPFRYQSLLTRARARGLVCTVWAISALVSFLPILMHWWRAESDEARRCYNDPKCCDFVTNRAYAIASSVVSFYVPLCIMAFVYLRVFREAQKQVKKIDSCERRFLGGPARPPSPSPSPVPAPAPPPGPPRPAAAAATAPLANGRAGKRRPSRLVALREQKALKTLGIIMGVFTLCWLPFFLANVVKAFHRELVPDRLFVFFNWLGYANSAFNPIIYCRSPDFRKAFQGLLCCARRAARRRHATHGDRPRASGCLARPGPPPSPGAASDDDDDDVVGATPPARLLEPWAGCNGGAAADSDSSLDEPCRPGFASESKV
Sequence of Histamine H3 receptor (Homo sapiens) (Q9Y5N1 whole entry): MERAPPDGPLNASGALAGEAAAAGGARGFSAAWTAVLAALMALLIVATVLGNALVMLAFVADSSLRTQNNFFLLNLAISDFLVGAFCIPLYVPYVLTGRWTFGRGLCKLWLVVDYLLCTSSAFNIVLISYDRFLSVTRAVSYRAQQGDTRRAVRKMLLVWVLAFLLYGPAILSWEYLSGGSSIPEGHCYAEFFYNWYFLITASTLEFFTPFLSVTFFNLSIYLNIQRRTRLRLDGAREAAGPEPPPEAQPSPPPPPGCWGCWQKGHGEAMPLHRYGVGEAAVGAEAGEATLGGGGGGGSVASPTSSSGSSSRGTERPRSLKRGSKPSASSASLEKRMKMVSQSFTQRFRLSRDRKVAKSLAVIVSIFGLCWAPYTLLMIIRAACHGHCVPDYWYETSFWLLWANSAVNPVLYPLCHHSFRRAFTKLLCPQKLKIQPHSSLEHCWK
Sequence of D(1B) dopamine receptor (Homo sapiens) (P21918 whole entry): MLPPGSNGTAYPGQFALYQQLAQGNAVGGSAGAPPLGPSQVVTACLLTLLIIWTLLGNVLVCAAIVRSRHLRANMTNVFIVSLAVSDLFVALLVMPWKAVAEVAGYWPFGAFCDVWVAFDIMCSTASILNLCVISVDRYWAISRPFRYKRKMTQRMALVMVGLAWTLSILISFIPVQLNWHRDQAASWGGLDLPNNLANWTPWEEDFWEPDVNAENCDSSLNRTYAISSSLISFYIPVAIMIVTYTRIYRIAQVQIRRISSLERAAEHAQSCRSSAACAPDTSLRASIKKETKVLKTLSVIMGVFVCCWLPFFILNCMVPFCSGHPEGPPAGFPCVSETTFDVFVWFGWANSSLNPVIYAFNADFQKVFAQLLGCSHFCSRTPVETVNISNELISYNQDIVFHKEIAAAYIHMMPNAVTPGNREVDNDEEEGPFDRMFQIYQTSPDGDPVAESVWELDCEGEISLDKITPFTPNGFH
Sequence of 5-hydroxytryptamine receptor 1B (Homo sapiens) (P28222 whole entry): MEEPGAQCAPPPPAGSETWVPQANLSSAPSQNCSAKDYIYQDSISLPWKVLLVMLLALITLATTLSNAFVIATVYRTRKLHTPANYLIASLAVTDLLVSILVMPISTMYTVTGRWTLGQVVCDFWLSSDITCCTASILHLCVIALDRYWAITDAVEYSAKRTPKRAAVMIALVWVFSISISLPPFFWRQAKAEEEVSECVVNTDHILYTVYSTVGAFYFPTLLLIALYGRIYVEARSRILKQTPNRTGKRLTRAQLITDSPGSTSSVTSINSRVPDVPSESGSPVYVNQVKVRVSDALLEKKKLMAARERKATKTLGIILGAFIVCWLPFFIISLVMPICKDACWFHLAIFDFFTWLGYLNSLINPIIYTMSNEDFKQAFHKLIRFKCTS
Sequence of D(4) dopamine receptor (Homo sapiens) (P21917 whole entry): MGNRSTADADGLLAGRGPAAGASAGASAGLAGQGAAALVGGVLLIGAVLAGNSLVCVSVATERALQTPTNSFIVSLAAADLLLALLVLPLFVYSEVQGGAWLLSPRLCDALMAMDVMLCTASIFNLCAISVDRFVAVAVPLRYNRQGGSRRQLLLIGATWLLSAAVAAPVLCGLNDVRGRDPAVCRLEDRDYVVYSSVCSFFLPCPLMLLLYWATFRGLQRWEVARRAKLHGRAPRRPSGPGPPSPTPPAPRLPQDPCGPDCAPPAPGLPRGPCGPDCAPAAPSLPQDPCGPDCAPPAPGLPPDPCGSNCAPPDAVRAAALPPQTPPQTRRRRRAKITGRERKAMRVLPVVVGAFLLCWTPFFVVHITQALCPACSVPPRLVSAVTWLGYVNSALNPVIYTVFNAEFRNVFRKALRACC

For `CCOC(=O)N1[C@@H]2CC[C@H]1C[C@H](CN1CC[C@@H](N3Cc4ccccc4NC3=O)C1)C2`, which Activity [1] is on record?
The Activity was 3%.

What about the IC50 (Cytochrome P450 2C9) of the same molecule?
The IC50 was > 2000 nM.

What about the Activity [2] of the same molecule?
The Activity was 2%.

What about the ED50 (Rattus norvegicus) of the same molecule?
The ED50 was 3 mg/kg.

And the Activity [3]?
The Activity was -0.25%.

What about the Activity [4] of the same molecule?
Its Activity is 1.07%.

What about the Activity [5] of the same molecule?
The Activity was 0.49%.

And the Activity [6]?
The Activity was -2.42%.

What about the Activity [7] of the same molecule?
The Activity was -0.14%.

And the Activity [8]?
The Activity was 0.27%.

And the Activity [9]?
The Activity was 0.45%.

What about the Activity [10] of the same molecule?
The Activity was -1.12%.

What about the Activity [11] of the same molecule?
Its Activity is 0.39%.

What about the inhibition [12] of the same molecule?
Its inhibition is -3.67%.

What about the inhibition [13] of the same molecule?
Its inhibition is 6.45%.

What about the inhibition [14] of the same molecule?
Its inhibition is 27.6%.

And the inhibition [15]?
The inhibition was -3.44%.

What about the inhibition [16] of the same molecule?
The inhibition was 13.7%.

What about the inhibition [17] of the same molecule?
The inhibition was 0.46%.

And the inhibition [18]?
The inhibition was -1.91%.

And the inhibition [19]?
Its inhibition is 1.33%.

What about the inhibition [20] of the same molecule?
Its inhibition is -3.46%.

And the inhibition [21]?
The inhibition was 10.5%.

And the inhibition [22]?
Its inhibition is -0.04%.

And the inhibition [23]?
The inhibition was 6.13%.
